3 compounds from patent US12338264B2, “Crystalline potassium salt of 2-O-α-D-glucosyl-L-ascorbic acid and method for producing the same” (NAGASE VIITA CO., LTD., priority 2019, dated 2025) can be followed below.

Series [1] in a line: Hygroscopicity: mass increase on storage at 75.2% relative humidity. Type of series: physicochemical. The conditions noted are these: relative humidity 75.2%; for Increase rate of mass: at room temperature, after storage for 24 hours. Here is the method: An experiment was carried out to compare the hygroscopicity of both the hydrous crystalline potassium salt of ascorbic acid 2-glucoside, obtained by the method in the Experiment 1, and the hydrous crystalline sodium salt of ascorbic acid 2-glucoside, obtained by the method described in Patent Literature 10. That is, 0.5 g each of the hydrous crystalline potassium salt of ascorbic acid 2-glucoside and the hydrous crystalline sodium salt of ascorbic acid 2-glucoside were weighted and stored in a desiccator conditioned to 75.2% relative humidity (RH) using saturated salt solution for 24 hours at room temperature. After that, the mass of each was measured, the mass increased by moisture absorption was determined, and the increase rate of mass {(Mass increased by storage)/(Mass at the beginning of storage)×100} (% by mass) was determined.

Series [2] in a line: pH of 1% by mass aqueous solution. Type of series: physicochemical. The conditions noted are these: dissolved in deionized water. Here is the method:
1% by mass of aqueous solution of the crystal obtained in Experiment 1 was prepared and its pH was measured.
A commercially available particulate composition containing anhydrous crystalline ascorbic acid 2-glucoside (product name “Ascofresh” (registered trademark), commercialized by Hayashibara Co., Ltd., Okayama, Japan) and a hydrous crystalline potassium salt of ascorbic acid 2-glucoside, obtained by the method in the Experiment 1 were made into compositions with the ratios by mass ranging from 100:0 to 0:100 as shown in Table 3. Each of the resulting compositions was dissolved in deionized water to give a concentration of 1% by mass, following by measuring the pHs of the resulting solutions.

On to “hydrous crystalline sodium salt of ascorbic acid 2-glucoside [reference compound]”, for which the “Increase rate of mass” value in series [1] is on record as 15.8 % by mass. For `O=C1O[C@H]([C@@H](O)CO)C([O-])=C1O[C@H]1O[C@H](CO)[C@@H](O)[C@H](O)[C@H]1O.[K+]` [hydrous crystalline potassium salt of ascorbic acid 2-glucoside], the “pH of 1% by mass aqueous solution” value in series [2] is on record as 12.7. In series [1], the “Increase rate of mass” value amounted to 9.1 % by mass. Besides, the “Increase rate of mass relative to that of the hydrous crystalline sodium salt of ascorbic acid 2-glucoside” value in series [1] (room temperature, 24 hours) was “under 60%”.

In the case of `O=C1O[C@H]([C@@H](O)CO)C(O)=C1O[C@H]1O[C@H](CO)[C@@H](O)[C@H](O)[C@H]1O` [2-O-α-D-Glucosyl-L-ascorbic acid], the “pH of 1% by mass aqueous solution” value in series [2] came to 2.2.
